This is an account of results in US10988440B2, “FTO inhibitors” (National Institute of Biological Sciences, Beijing, priority 2015, dated 2021).

SMILES strings stand for the structures.

For one series, the target named is FTO (Homo sapiens, UniProt Q9C0B1). Briefly: demethylation reaction catalyzed by FTO (enzymatic inhibition, HPLC-MS/MS of N6-mA and A). The series is classed as biochemical. The settings on record: exemplary IC50 data of representative compounds; read-out: Enzymatic inhibition (IC50).
Sequence of FTO (Q9C0B1 whole entry): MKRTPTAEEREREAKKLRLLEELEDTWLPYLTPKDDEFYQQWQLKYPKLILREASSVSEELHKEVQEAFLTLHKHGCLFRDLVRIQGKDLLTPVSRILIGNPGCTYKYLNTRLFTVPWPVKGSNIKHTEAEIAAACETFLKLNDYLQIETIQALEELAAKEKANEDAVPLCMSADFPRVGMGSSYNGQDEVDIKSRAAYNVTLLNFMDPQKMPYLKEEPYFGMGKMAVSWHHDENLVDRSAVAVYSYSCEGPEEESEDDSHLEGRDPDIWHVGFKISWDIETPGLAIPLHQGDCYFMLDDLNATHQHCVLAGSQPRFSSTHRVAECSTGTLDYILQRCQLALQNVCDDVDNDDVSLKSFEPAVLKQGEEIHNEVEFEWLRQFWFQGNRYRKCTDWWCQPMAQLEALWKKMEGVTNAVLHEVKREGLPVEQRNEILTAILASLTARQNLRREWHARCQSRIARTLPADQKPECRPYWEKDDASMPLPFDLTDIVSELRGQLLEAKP
With `N#C/C(=C\c1cc(O)c(O)c([N+](=O)[O-])c1)C(=O)NCC(=O)O` [Compound 709, (E)-2-(2-cyano-3-(3,4-dihydroxy-5-nitrophenyl)acrylamido)acetic Acid], the IC50 was less than 1000 nM.
Same read-out and setting: the value for `N#C/C(C(=O)NC1CC1)=C(/O)c1cc(O)c(O)c([N+](=O)[O-])c1` [Compound 692, (Z)-2-cyano-N-cyclopropyl-3-(3,4-dihydroxy-5-nitrophenyl)-3-hydroxyacrylamide] was less than 1000 nM; that for `N#C/C(=C\c1cc(O)c(O)c([N+](=O)[O-])c1)C(=O)NCCO` [Compound 688, (E)-2-cyano-3-(3,4-dihydroxy-5-nitrophenyl)-N-(2-hydroxyethyl)acrylamide] was more than 1000 nM.
Still for that read-out and setting: the value for `N#C/C(=C\c1cc(O)c(O)c([N+](=O)[O-])c1)C(=O)c1cc(O)no1` [Compound 675, (E)-3-(3,4-dihydroxy-5-nitrophenyl)-2-(3-hydroxyisoxazole-5-carbonyl)acrylonitrile] was more than 1000 nM; that for `N#C/C(=C\c1cc(O)c(O)c([N+](=O)[O-])c1)c1cncnc1` [Compound 522] was approximately 1000 nM; that for `N#C/C(=C\c1cc(O)c(O)c([N+](=O)[O-])c1)C(=O)c1nc2ccccc2[nH]1` [Compound 394, 2-(1H-benzo[d]imidazole-2-carbonyl)-3-(3,4-dihydroxy-5-nitrophenyl)acrylo-nitrile] was more than 1000 nM.
The same measure, in the same setting: next, `N#C/C(C(=O)Nc1cnccn1)=C(/O)c1cc(O)c(O)c([N+](=O)[O-])c1` [Compound 722]: less than 1000 nM; `N#C/C(C(=O)N1CCCOC1)=C(/O)c1cc(O)c(O)c([N+](=O)[O-])c1` [Compound 715]: less than 1000 nM.
Turning to `N#C/C(C(=O)Nc1ncns1)=C(/O)c1cc(O)c(O)c([N+](=O)[O-])c1` [Compound 668, 2-cyano-3-(3,4-dihydroxy-5-nitrophenyl)-3-hydroxy-N-(1,2,4-thiadiazol-5-yl)acrylamide], the IC50 was less than 1000 nM.
Consider `N#C/C(=C\c1cc(O)c(O)c([N+](=O)[O-])c1)c1nc(C(=O)O)cs1` [Compound 666, (E)-2-(1-cyano-2-(3,4-dihydroxy-5-nitrophenyl)vinyl)thiazole-4-carboxylic Acid], for which the IC50 was less than 1000 nM.
Still for that read-out and setting: the value for `N#C/C(=C\c1cc(O)c(O)c([N+](=O)[O-])c1)C(=O)NC1COC1` [Compound 713] was less than 1000 nM; that for `N#C/C(=C\c1cc(O)c(O)c([N+](=O)[O-])c1)C(=O)N1CCCC1` [Compound 317] was more than 1000 nM; that for `N#C/C(=C(/O)c1cc(O)c(O)c([N+](=O)[O-])c1)c1nc2ccccc2s1` [Compound 359] was more than 1000 nM.
Still for that read-out and setting: the value for `N#C/C(=C\c1cc(O)c(O)c([N+](=O)[O-])c1)C(=O)NCc1ccccc1` [Compound 366] was more than 1000 nM.
Same read-out and setting: next, `N#C/C(=C\c1cc(O)c(O)c([N+](=O)[O-])c1)c1ncns1` [Compound 656, (E)-3-(3,4-dihydroxy-5-nitrophenyl)-2-(1,2,4-thiadiazol-5-yl)acrylonitrile]: less than 1000 nM; `N#C/C(C(=O)NC1CC1)=C(/N)c1cc(O)c(O)c([N+](=O)[O-])c1` [Compound 692N, (Z)-3-amino-2-cyano-N-cyclopropyl-3-(3,4-dihydroxy-5-nitrophenyl)acrylamide]: more than 1000 nM; `CCNC(=O)/C(C#N)=C/c1cc(O)c(O)c([N+](=O)[O-])c1` [Compound 684]: more than 1000 nM.
`N#C/C(C(=O)c1cscn1)=C(/N)c1cc(O)c(O)c([N+](=O)[O-])c1` [Compound 711N, ammonium (Z)-5-(1-amino-2-cyano-3-oxo-3-(thiazol-4-yl)prop-1-enyl)-2-hydroxy-3-nitrophenolate]: the IC50 was more than 1000 nM.
Still for that read-out and setting: the value for `COc1cc(/C(O)=C(\C#N)c2cnccn2)cc([N+](=O)[O-])c1O` [Compound 524] was approximately 1000 nM; that for `N#C/C(=C\c1cc(O)c(O)c([N+](=O)[O-])c1)c1cccnc1` [Compound 319] was less than 1000 nM; that for `N#C/C(=C\c1cc(O)c(O)c([N+](=O)[O-])c1)C(=O)N1CCC[C@H]1C(=O)O` [Compound 702, (S,E)-1-(2-cyano-3-(3,4-dihydroxy-5-nitrophenyl)acryloyl)pyrrolidine-2-carboxylic Acid] was approximately 1000 nM.
Still for that read-out and setting: next, `CCNC(=O)/C(C#N)=C(\O)c1cc(O)c(O)c([N+](=O)[O-])c1` [Compound 691, (Z)-2-cyano-3-(3,4-dihydroxy-5-nitrophenyl)-N-ethyl-3-hydroxyacrylamide]: less than 1000 nM; `COc1cc(/C(O)=C(\C#N)C(=O)NCc2ccncn2)cc([N+](=O)[O-])c1O` [Compound 674]: more than 1000 nM.
On the same count and under the same terms, the value for `N#CC(=Cc1cc(O)c(O)c([N+](=O)[O-])c1)c1cccnn1` (stereo in doubt) [Compound 505, (E)-3-(3,4-dihydroxy-5-nitrophenyl)-2-(pyridazin-3-yl)acrylonitrile] was less than 1000 nM.
Turning to `N#C/C(=C\c1cc(O)c(O)c([N+](=O)[O-])c1)C(=O)N[C@@H](CO)C(=O)O` [Compound 693, (S,E)-2-(2-cyano-3-(3,4-dihydroxy-5-nitrophenyl)acrylamido)-3-hydroxypropanoic Acid], the IC50 is approximately 1000 nM.
`CCNC(=O)/C(C#N)=C(\N)c1cc(O)c(O)c([N+](=O)[O-])c1` [Compound 691N, (Z)-3-amino-2-cyano-3-(3,4-dihydroxy-5-nitrophenyl)-N-ethylacrylamide]: the IC50 is approximately 1000 nM.
Still for that read-out and setting: the value for `N#C/C(=C(/N)c1cc(O)c(O)c([N+](=O)[O-])c1)c1cnc(C(=O)O)cn1` [Compound 697N] was less than 1000 nM; that for `N#C/C(=C\c1cc(O)c(O)c([N+](=O)[O-])c1)C(=O)N1CCOCC1` [Compound 382] was more than 1000 nM.
Still for that read-out and setting: the value for `N#C/C(C(=O)NCc1ccncn1)=C(/O)c1cc(O)c(O)c([N+](=O)[O-])c1` [Compound 673, (Z)-2-cyano-3-(3,4-dihydroxy-5-nitrophenyl)-3-hydroxy-N-(pyrimidin-4-ylmethyl)acrylamide] was less than 1000 nM.
The same measure, in the same setting: the value for `Cc1ccc(/C(C#N)=C/c2cc(O)c(O)c([N+](=O)[O-])c2)nc1` [Compound 502] was less than 1000 nM.
For the molecule `N#C/C(=C\c1cc(O)c(O)c([N+](=O)[O-])c1)c1ccncc1` [Compound 389], the IC50 was approximately 1000 nM.
Same read-out and setting: next, `N#C/C(=C\c1cc(O)c(O)c([N+](=O)[O-])c1)c1c[n+]([O-])ccn1` [Compound 520]: less than 1000 nM.
The same measure, in the same setting: next, `N#C/C(=C\c1cc(O)c(O)c([N+](=O)[O-])c1)C(=O)NO` [Compound 664]: approximately 1000 nM.
Same read-out and setting: next, `N#C/C(=C\c1cc(O)c(O)c([N+](=O)[O-])c1)C(=O)Nc1ccccc1` [Compound 318]: approximately 1000 nM; `N#C/C(=C\c1cc(O)c(O)c([N+](=O)[O-])c1)C(=O)Nc1nc2ccccc2s1` [Compound 333]: more than 1000 nM.
`N#C/C(C(=O)c1cscn1)=C(/O)c1cc(O)c(O)c([N+](=O)[O-])c1` [Compound 711, (Z)-3-(3,4-dihydroxy-5-nitrophenyl)-3-hydroxy-2-(thiazole-4-carbonyl)acrylonitrile]: the IC50 was approximately 1000 nM.
Consider `N#C/C(C(=O)N1CCC1)=C(/N)c1cc(O)c(O)c([N+](=O)[O-])c1` [Compound 701N, (Z)-3-amino-2-(azetidine-1-carbonyl)-3-(3,4-dihydroxy-5-nitrophenyl)acrylonitrile], for which the IC50 was more than 1000 nM.
On the same count and under the same terms, the value for `CC(NC(=O)/C(C#N)=C/c1cc(O)c(O)c([N+](=O)[O-])c1)C(=O)O` (centres unmarked) [Compound 712] was approximately 1000 nM; that for `N#CC(=Cc1cc(O)c(O)c([N+](=O)[O-])c1)c1ccc[n+]([O-])c1` (stereo in doubt) [Compound 518, (E)-3-(1-cyano-2-(3,4-dihydroxy-5-nitrophenyl)vinyl)pyridine 1-oxide] was more than 1000 nM; that for `N#C/C(=C\c1cc(O)c(O)c([N+](=O)[O-])c1)C(=O)c1cscn1` [Compound 698] was more than 1000 nM.
On the same count and under the same terms, the value for `N#C/C(=C\c1cc(O)c(O)c([N+](=O)[O-])c1)C(=O)Nc1cccc(Cl)c1` [Compound 365] was approximately 1000 nM.

For the next series, the target named is T1, COMT enzyme (Homo sapiens, UniProt P21964).
T1 construct: COMT (μM); other: at 200 nM; other: at 50 nM; The reaction system contains 1U COMT enzyme, test article, 4 μM Esculetin, 0.6 mM AdoMet, 50 mM K3PO4, and 10 mM MgCl2
T1 sequence (P21964 1-271): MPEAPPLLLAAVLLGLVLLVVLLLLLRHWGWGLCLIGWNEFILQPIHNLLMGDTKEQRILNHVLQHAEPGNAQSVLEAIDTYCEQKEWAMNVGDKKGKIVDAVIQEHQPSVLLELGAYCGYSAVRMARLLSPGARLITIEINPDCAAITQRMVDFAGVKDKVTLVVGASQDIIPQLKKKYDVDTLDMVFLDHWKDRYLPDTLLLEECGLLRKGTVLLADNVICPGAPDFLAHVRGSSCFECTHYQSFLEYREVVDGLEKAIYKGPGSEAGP
Briefly: COMT inhibition assay (reaction kinetic model, esculetin fluorescence).
Conditions: not given
The class given is biochemical.
For the molecule `CCN(CC)C(=O)/C(C#N)=C(\O)c1cc(O)c(O)c([N+](=O)[O-])c1` [Compound 347, 2-cyano-3-(3,4-dihydroxy-5-nitrophenyl)-N,N-diethyl-3-oxopropanamide], the IC50 turned out to be 551 nM.

The series is the same for the next values; noted with them: read-out: COMT inhibition at 50 nM.
For `N#C/C(=C\c1cc(O)c(O)c([N+](=O)[O-])c1)C(=O)N1CCCCC1` [Compound 371, (E)-3-(3,4-dihydroxy-5-nitrophenyl)-2-(piperidine-1-carbonyl)acrylonitrile], the inhibition at 0.05 µM was 33%.

Staying with this series, now noted: read-out: COMT inhibition at 200 nM.
With `N#C/C(=C\c1cc(O)c(O)c([N+](=O)[O-])c1)C(=O)N1CCCCC1` [Compound 371, (E)-3-(3,4-dihydroxy-5-nitrophenyl)-2-(piperidine-1-carbonyl)acrylonitrile], the inhibition at 0.2 µM is 71%.

Test system in a further series: not listed separately
Briefly: Rat liver microsome stability assay. The settings on record: liver microsomes, pH 7.4; rat liver microsome 1 mg/ml, test compound 2 μM, NADPH 1 mM, 37° C.; read-out: Rat Liver Microsome CLint (μL/min/mg protein). The series is classed as in vitro ADME.
Regarding `CCN(CC)C(=O)/C(C#N)=C(\O)c1cc(O)c(O)c([N+](=O)[O-])c1` [Compound 347, 2-cyano-3-(3,4-dihydroxy-5-nitrophenyl)-N,N-diethyl-3-oxopropanamide], the microsomal CLint at 1 h, 2 µM was found to be 0.1 µL/min/mg.
The same measure, in the same setting: the value for `CCN(CC)C(=O)/C(C#N)=C/c1cc(O)c(O)c([N+](=O)[O-])c1` [Entacapone, entacapone, reference compound] was 17.7 µL/min/mg; that for `N#C/C(=C\c1cc(O)c(O)c([N+](=O)[O-])c1)C(=O)N1CCCCC1` [Compound 371, (E)-3-(3,4-dihydroxy-5-nitrophenyl)-2-(piperidine-1-carbonyl)acrylonitrile] was 43 µL/min/mg.

The same series, now with this note: liver microsomes, pH 7.4; rat liver microsome 1 mg/ml, test compound 2 μM, NADPH 1 mM, 37° C.; read-out: Rat Liver Microsome T½.
Take `CCN(CC)C(=O)/C(C#N)=C(\O)c1cc(O)c(O)c([N+](=O)[O-])c1` [Compound 347, 2-cyano-3-(3,4-dihydroxy-5-nitrophenyl)-N,N-diethyl-3-oxopropanamide]: the half-life at 1 h, 2 µM stood at 6930 min.
Still for that read-out and setting: next, `CCN(CC)C(=O)/C(C#N)=C/c1cc(O)c(O)c([N+](=O)[O-])c1` [Entacapone, entacapone, reference compound]: 39.2 min.
On the same count and under the same terms, the value for `N#C/C(=C\c1cc(O)c(O)c([N+](=O)[O-])c1)C(=O)N1CCCCC1` [Compound 371, (E)-3-(3,4-dihydroxy-5-nitrophenyl)-2-(piperidine-1-carbonyl)acrylonitrile] was 16.1 min.
